The text below walks through data of patent publication US9169254B2, “Spiroimidazolone derivative” (Chugai Seiyaku Kabushiki Kaisha, priority 2009, dated 2015).

For assay [1] the following is noted: subcutaneous administration, cited from earlier work.
For assay [2] the following is noted: subcutaneous administration, cited from earlier work. This is another data set of the same source.
A further assay addresses T1, human PTH1 receptor (Homo sapiens, UniProt Q03431).
T1 sequence (Q03431 27-593): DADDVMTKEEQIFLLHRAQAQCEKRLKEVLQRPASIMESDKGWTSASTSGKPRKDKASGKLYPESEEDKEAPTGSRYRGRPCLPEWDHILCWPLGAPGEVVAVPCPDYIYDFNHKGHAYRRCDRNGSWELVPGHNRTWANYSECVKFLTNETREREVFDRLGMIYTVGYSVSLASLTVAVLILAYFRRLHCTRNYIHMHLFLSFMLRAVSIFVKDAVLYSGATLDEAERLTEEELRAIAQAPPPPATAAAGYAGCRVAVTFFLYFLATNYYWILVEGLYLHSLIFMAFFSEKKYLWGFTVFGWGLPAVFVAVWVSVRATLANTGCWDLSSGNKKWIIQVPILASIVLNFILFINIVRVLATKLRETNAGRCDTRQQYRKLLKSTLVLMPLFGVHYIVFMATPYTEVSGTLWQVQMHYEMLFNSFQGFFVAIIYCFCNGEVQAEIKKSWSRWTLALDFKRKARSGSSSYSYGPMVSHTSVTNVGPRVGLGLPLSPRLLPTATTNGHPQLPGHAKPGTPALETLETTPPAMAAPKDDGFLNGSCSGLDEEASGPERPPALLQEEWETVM
Briefly: In vitro cAMP signal activity in HKRK-B7 cells (LLC-PK1 cells overexpressing the human PTH1 receptor). The assay is classed as cell-based. The conditions noted are these: HKRK-B7 cells; compound at 1×10^−3 M; cAMP produced as percentage of that produced by hPTH(1-34) at 100 nM.

Where two headings read alike, the source gives them in different places.

In the case of `CC[C@H](C)[C@H](NC(=O)[C@H](CCC(=O)O)NC(=O)[C@H](CO)NC(=O)[C@@H](NC(=O)[C@@H](N)CO)C(C)C)C(=O)N[C@@H](CCC(N)=O)C(=O)N[C@@H](CC(C)C)C(=O)N[C@@H](CCSC)C(=O)N[C@@H](Cc1cnc[nH]1)C(=O)N[C@@H](CC(N)=O)C(=O)N[C@@H](CC(C)C)C(=O)NCC(=O)N[C@@H](CCCCN)C(=O)N[C@@H](Cc1cnc[nH]1)C(=O)N[C@@H](CC(C)C)C(=O)N[C@@H](CC(N)=O)C(=O)N[C@@H](CO)C(=O)N[C@@H](CCSC)C(=O)N[C@@H](CCC(=O)O)C(=O)N[C@@H](CCCN=C(N)N)C(=O)N[C@H](C(=O)N[C@@H](CCC(=O)O)C(=O)N[C@@H](Cc1c[nH]c2ccccc12)C(=O)N[C@@H](CC(C)C)C(=O)N[C@@H](CCCN=C(N)N)C(=O)N[C@@H](CCCCN)C(=O)N[C@@H](CCCCN)C(=O)N[C@@H](CC(C)C)C(=O)N[C@@H](CCC(N)=O)C(=O)N[C@@H](CC(=O)O)C(=O)N[C@H](C(=O)N[C@@H](Cc1cnc[nH]1)C(=O)N[C@@H](CC(N)=O)C(=O)N[C@@H](Cc1ccccc1)C(=O)O)C(C)C)C(C)C` [human PTH(1-34), teriparatide], in assay [1] (in two years), the “decrease of the risk of nonvertebral fracture” value is 55% and the “decrease of the risk of vertebral fracture” value is reported as 65%. The “increase of the spine bone mineral density (BMD)” value in assay [2] (in one year) is recorded as 8%.

For the molecule `O=C1NC(c2ccncc2)=NC12CCN(S(=O)(=O)c1cccc(Cl)c1)CC2` [Compound 2, 8-(3-chloro-benzenesulfonyl)-2-pyridin-4-yl-1,3,8-triaza-spiro[4.5]dec-1-en-4-one], the “cAMP production activity (%)” value on human PTH1 receptor came to 1.0%. Take `CC(=O)N(C)c1ccc(/C(F)=C\S(=O)(=O)N2CCC3(CC2)N=C(C2CCC(C)CC2)NC3=O)c(C)c1` (stereo not shown) [Compound 942, N-(4-{(E)-1-Fluoro-2-[2-(4-methyl-cyclohexyl)-4-oxo-1,3,8-triaza-spiro[4.5]dec-1-ene-8-sulfonyl]-vinyl}-3-methyl-phenyl)-N-methyl-acetamide]: the “cAMP production activity (%)” value at human PTH1 receptor was found to be 31%.

For `O=C1NC(C2CCCCC2)=NC12CCN(S(=O)(=O)/C=C/c1cccc3[nH]ccc13)CC2` [Compound 182, 2-cyclohexyl-8-[(E)-2-(1H-indol-4-yl)-ethenesulfonyl]-1,3,8-triaza-spiro[4.5]dec-1-en-4-one], on human PTH1 receptor, the “cAMP production activity (%)” value stood at 38%. For the molecule `CC(C)N(CCNC(=O)Cc1ccc(/C=C/S(=O)(=O)N2CCC3(CC2)N=C(C2CCCCC2)NC3=O)cc1)C(C)C` [Compound 571, 2-{4-[(E)-2-(2-cyclohexyl-4-oxo-1,3,8-triaza-spiro[4.5]dec-1-ene-8-sulfonyl)-vinyl]-phenyl}-N-(2-diisopropylamino-ethyl)-acetamide], at human PTH1 receptor, the “cAMP production activity (%)” value is on record as 39%. Same read-out and setting: next, `COc1ccc(CCCS(=O)(=O)N2CCC3(CC2)N=C(C2CCCCC2)NC3=O)cc1` [Compound 346, 2-Cyclohexyl-8-[3-(4-methoxy-phenyl)-propane-1-sulfonyl]-1,3,8-triaza-spiro[4.5]dec-1-en-4-one]: 28%.

B1: human PTH(1-84): "Native human parathyroid hormone is a polypeptide consisting of 84 amino acids" (protein, UniProt P01270 32-115, looked up)
Parathyroid hormone: SVSEIQLMHNLGKHLNSMERVEWLRKKLQDVHNFVALGAPLAPRDAGSQRPRKKEDNVLVESHEKSLGEADKADVNVLTKAKSQ
modifications: Parathyroid hormone
On to B1, for which the “decrease of the risk of vertebral fracture” value in assay [1] (18-month study) is 58%. Besides, the “increase of the spine bone mineral density (BMD)” value in assay [2] (in 18 months) was 6.9%.
